Data set [1] deals with T1, h-NK1 receptors (Homo sapiens, UniProt P25103).
T1 construct: expressed in transfected cells; host or cells: CHO cells (permanent expression), crude cell membranes
Nature of the data set: Evaluation of NK1 antagonist transport efficiency to the central nervous system using a h-NK1 receptor binding assay. The conditions noted are these: 5 min, brain extract of male SD rats 5 min after i.v. injection of test compound, CHO cell membranes expressing h-NK1, read-out: inhibition rate of 125I-BH-Substance P binding to h-NK1 receptors. The gist of the method:
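Male SD rats dosed i.v. at 1 mg/kg; brain removed 5 min later after saline perfusion, homogenized, extracted with ethyl acetate. Extract competed against 0.1 nM 125I-BH-Substance P on CHO h-NK1 membranes, 22 °C, 90 min, pH 7.4 Mn2+ buffer; specific binding defined with 3 μM unlabeled Substance P.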

Data set [2] deals with emesis in the ferret. Nature of the data set: Emesis in the ferret (copper sulfate induced). The format is in vivo. The conditions noted are these: i.p. dose of 3.2 and/or 10 mg/kg, 30 min before intra-gastric copper sulfate (40 mg/kg/ml); retching and vomiting observed for 30 min. As to the method:
Individually housed adult male ferrets (Marshall Farms, 1.4 to 2.2 kg) were given an i.p. injection of a solution containing a test compound 30 Min later the emetic responses (retching and vomiting) were induced by administration of intra-gastric copper sulfate (40 mg/kg/ml) and observed for the next 30 min. The timing and number of retches and vomits observed were recorded for each animal. An individual animal was tested with at least 10 days between experiments.

T1 sequence (P25103 whole entry): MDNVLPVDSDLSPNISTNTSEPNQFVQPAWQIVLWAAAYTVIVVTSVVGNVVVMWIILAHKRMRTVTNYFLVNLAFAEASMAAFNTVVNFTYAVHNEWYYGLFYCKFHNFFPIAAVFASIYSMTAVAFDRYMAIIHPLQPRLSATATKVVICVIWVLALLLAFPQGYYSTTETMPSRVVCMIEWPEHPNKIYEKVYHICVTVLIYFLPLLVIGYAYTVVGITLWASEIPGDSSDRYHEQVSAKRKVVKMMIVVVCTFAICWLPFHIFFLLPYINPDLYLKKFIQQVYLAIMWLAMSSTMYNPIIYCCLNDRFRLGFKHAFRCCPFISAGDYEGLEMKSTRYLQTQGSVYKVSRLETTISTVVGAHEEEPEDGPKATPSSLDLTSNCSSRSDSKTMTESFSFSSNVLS

The term inhibition denotes the percentage by which the read-out fell short of the control. As for `CC(=O)c1ccc(C(=O)N2CCN(C(=O)c3cc(C(F)(F)F)cc(C(F)(F)F)c3)[C@H](Cc3ccc(Cl)c(Cl)c3)C2)cc1` [Example 12, (2R)-4-(4-acetylbenzoyl)-1-[3,5-bis (trifluoromethyl)benzoyl]-2-(3,4-dichlorobenzyl)piperazine], the inhibition at 1 mg/kg in data set [1] was more than 80%. For the same molecule, the “inhibition rate of emesis in the ferret” value in data set [2] worked out at 100%.

What is called melting point is the temperature of the solid-liquid transition. For `Cl.Cl.O=C(c1cc(C(F)(F)F)cc(C(F)(F)F)c1)N1CCN(CCCN2CC3CCC(CC3)C2)C[C@H]1Cc1c[nH]c2ccccc12` [Example 22, (2R)-4-[3-(3-azabicyclo(3.2.2]non-3-yl)propyl]-1-[3,5-bis(trifluoromethyl)benzoyl]-2-(1H-indol-3-ylmethyl) piperazine dihydrochloride], the melting point was in the range of 194 to 202 °C. Further, in data set [1], the inhibition at 1 mg/kg was more than 80%. Moreover, the “inhibition rate of emesis in the ferret” value in data set [2] is listed as 100%.

Regarding `Cc1ccc(C[C@@H]2CN(CCN3CCOCC3)CCN2C(=O)c2cc(C(F)(F)F)cc(C(F)(F)F)c2)cc1C.Cl.Cl` [37-(5), (2R)-4-(2-Morpholinoethyl)-1-[3,5-bis(trifluoromethyl)benzoyl]-2-(3,4-dimethylbenzyl)piperazine dihydrocloride], the “inhibition rate of emesis in the ferret” value in data set [2] was 100%.

Consider `Cc1ccc(C[C@@H]2CN(CCCN3CCSCC3)CCN2C(=O)c2cc(C(F)(F)F)cc(C(F)(F)F)c2)cc1C.Cl.Cl` [24-(2), (2R)-1-[3,5-Bis(trifluoromethyl)benzoyl]-2-(3,4-dimethylbenzyl)-4-(3-thiomorpholinopropyl) piperazine dihydrochloride], for which the melting point was 272 °C (dec.). In data set [1], the inhibition at 1 mg/kg was more than 80%. Besides, in data set [2], the “inhibition rate of emesis in the ferret” value is recorded as 100%.

`Cl.Cl.O=C(c1cc(C(F)(F)F)cc(C(F)(F)F)c1)N1CCN(CCN2CCSCC2)C[C@H]1Cc1c[nH]c2ccccc12` [Example 37-(6), (2R)-4-(2-Thiomorpholinoethyl)-1-[3,5-bis (trifluoromethyl)benzoyl]-2-(1H-indol-3-ylmethyl) piperazine dihydrochloride] showed a melting point of 170 to 182 °C. The inhibition at 1 mg/kg in data set [1] was more than 80%. Besides, the “inhibition rate of emesis in the ferret” value in data set [2] was determined as 100%.

Regarding `Cl.Cl.O=C(c1cc(C(F)(F)F)cc(C(F)(F)F)c1)N1CCN(CCCN2CCSCC2)C[C@H]1Cc1c[nH]c2ccccc12` [Example 23, (2R)-1-[3,5-bis(trifluoromethyl)benzoyl]-2-(1H-indol-3-ylmethyl)-4-(3-thiomorpholinopropyl) piperazine dihydrochloride], the inhibition at 1 mg/kg in data set [1] is more than 80%. Further, the “inhibition rate of emesis in the ferret” value in data set [2] was found to be 100%.

As for `Cc1ccc(C[C@@H]2CN(CCCCN3CCOCC3)CCN2C(=O)c2cc(C(F)(F)F)cc(C(F)(F)F)c2)cc1C.Cl.Cl` [Example 54, (2R)-1-[3,5-bis(trifluoromethyl)benzoyl]-2-(3,4-dimethylbenzyl)-4-(4-morpholinobutyl) piperazine dihydrochloride], the melting point was found to be 279 °C. Besides, the inhibition at 1 mg/kg in data set [1] is more than 80%.

For `COCCN(C)CCN1CCN(C(=O)c2cc(C(F)(F)F)cc(C(F)(F)F)c2)[C@H](Cc2ccc(C)c(C)c2)C1.Cl.Cl` [Example 67-(13), (2R)-1-[3,5-Bis(trifluoromethyl)benzoyl]-2-(3,4-dimethylbenzyl)-4-[2-[N-(2-methoxyethyl) -N-methylamino]ethyl]piperazine dihydrochloride], the melting point was 222 °C (dec.). Further, the inhibition at 1 mg/kg in data set [1] is more than 80%.

`Cc1ccc(C[C@@H]2CN(CC#CCN3CCOCC3C)CCN2C(=O)c2cc(C(F)(F)F)cc(C(F)(F)F)c2)cc1C.Cl.Cl` (stereo partly drawn) [Example 58, (2R)-1-[3,5-bis(trifluoromethyl)benzoyl]-2-(3,4-dimethylbenzyl)-4-[4-(3-methylmorpholino)-2-butynyl]piperazine dihydrochloride] had a melting point of 150 to 160 °C. For the same molecule, the inhibition at 1 mg/kg in data set [1] is more than 80%.

Consider `Cc1ccc(C[C@@H]2CN(C/C=C\CN3CCOCC3)CCN2C(=O)c2cc(C(F)(F)F)cc(C(F)(F)F)c2)cc1C.Cl.Cl` [Example 72, (2R)-1-[3,5-Bis(trifluoromethyl)benzoyl]-2-(3,4-dimethylbenzyl)-4-[(Z)-4-morpholino-2-butenyl]piperazine dihydrochloride], for which the melting point is 243 to 246 °C. The inhibition at 1 mg/kg in data set [1] is more than 80%.

For the molecule `CC1(C)COCCN1CC=CCN1CCN(C(=O)c2cc(C(F)(F)F)cc(C(F)(F)F)c2)[C@H](Cc2c[nH]c3ccccc23)C1.Cl.Cl` [Example 86, (2R) -1-[3,5-Bis(trifluoromethyl)benzoyl]-2-(1H-indol-3-ylmethyl)-4-[4-(3,3-dimethylmorpholino)-2-butenyl]piperazine dihydrochloride], the melting point was 210 °C (dec.). Further, the inhibition at 1 mg/kg in data set [1] was more than 80%.

In the case of `Cl.Cl.O=C(c1cc(C(F)(F)F)cc(C(F)(F)F)c1)N1CCN(CC#CCN2CCSCC2)C[C@H]1Cc1ccc(F)cc1` [84-(1), (2R)-1-[3,5-Bis(trifluoromethyl)benzoyl]-2-(4-fluorobenzyl)-4-(4-thiomorpholino-2-butynyl) piperazine dihydrochloride], the melting point was 180 °C (dec.). Further, the inhibition at 1 mg/kg in data set [1] is more than 80%.

Turning to `CC(=O)c1ccc(CN2CCN(C(=O)c3cc(C(F)(F)F)cc(C(F)(F)F)c3)[C@H](Cc3c[nH]c4ccccc34)C2)cc1.Cl` [Example 7, (2R)-4-(4-acetylbenzyl)-1-[3,5-bis(trifluoromethyl)benzoyl]-2-(1H-indol-3-ylmethyl) piperazine hydrochloride], the melting point was 172 °C (dec.). Moreover, in data set [1], the inhibition at 1 mg/kg is more than 80%.

The molecule `Cc1ccc(C[C@@H]2CN(CCN3CCSCC3)CCN2C(=O)c2cc(C(F)(F)F)cc(C(F)(F)F)c2)cc1C.Cl.Cl` [Example 37-(8), (2R)-4-(2-Thiomorpholinoethyl)-1-[3,5-bis (trifluoromethyl)benzoyl]-2-(3,4-dimethylbenzyl) piperazine dihydrochloride] gave a melting point of 261.5 °C. Further, the inhibition at 1 mg/kg in data set [1] was more than 80%.

The values above are taken from patent publication US20020010182A1, “Piperazine derivatives as tachykinin antagonists” (FUJISAWA PHARMACEUTICAL CO., LTD., priority 1995, published 2002).
